These results are taken from US20230358677A1, “Reversible Excited-State Photoacids and Photobases as Dynamic Fluorescence Sensors of Protonic Species” (California Institute of Technology, priority 2022, published 2023).

For data set [1] the following is noted: cited from earlier work; for pKa* pseudo: excited state, photoluminescence titration, Henderson-Hasselbalch analysis; for pKa: ground state.
Data set [2] is described as follows: Ground-state and excited-state acidities of aromatic-amine-based photoacids (Table 1). Conditions: pKa* pseudo minus pKa. The text has this: Because the Henderson-Hasselbalch equation is derived for proton-transfer reactions at thermal and chemical equilibrium, it is agnostic to whether the ESPT acceptor species are H2O(l) or OH^−(aq), but it does require that the system has reached excited-state quasi-equilibrium.
Observed rate constants can be determined for excited-state proton transfer from weak photoacids to a series of proton-accepting quenchers.

Turning to 2-aminonaphthalene-6-sulfonate, in data set [1], the “pKa* pseudo” value was 11.86.
One may read the pKa as the pH at which an ionisable group is half protonated. For `Nc1cccc2c1C(=O)c1cccc(N)c1C2=O` [1,5-diaminoanthraquinone], in data set [1], the “pKa* pseudo” value is on record as 12.3 and the pKa was more than 14. The compound also yielded a ΔpKa pseudo in data set [2] of less than −1.7.
Turning to `Nc1cc2ccccc2cc1N` [2,3-diaminonaphthalene], in data set [1], the “pKa* pseudo” value is listed as 12.9 and the pKa was more than 16. In data set [2], this compound came in with a ΔpKa pseudo of less than −3.1.
In the case of `Nc1ccc2c(c1)C(=O)c1ccc(N)cc1C2=O` [2,6-diaminoanthraquinone], in data set [1], the “pKa* pseudo” value is reported as 14.2 and the pKa is reported as more than 15.6. In data set [2], this compound returned a ΔpKa pseudo of less than −1.4.
Take `Nc1ccc2c(c1)Cc1cc(N)ccc1-2` [2,7-diaminofluorene]: in data set [1], the “pKa* pseudo” value is 13.9 and the pKa is recorded as more than 16. This compound also showed a ΔpKa pseudo in data set [2] of less than −2.1.
For `CNc1ccccc1-c1nc2ccccc2n1C` [2-(2′-N-methyl-aminophenyl)-N-methylbenzimidazole], the “pKa* pseudo” value in data set [1] is 12.2.
For the compound `Nc1cc2ccccc2cc1C(=O)O` [2-amino-3-naphthoic acid], in data set [1], the “pKa* pseudo” value was 12.8 and the pKa is given as more than 16. The compound also had a ΔpKa pseudo in data set [2] of less than 3.2.
As to `Nc1ccccc1-c1ccccc1` [2-aminobiphenyl], in data set [1], the “pKa* pseudo” value was 12.1 and the pKa is more than 15.0. In addition, the ΔpKa pseudo in data set [2] is recorded as less than −2.9.
As to `Nc1ccc2c(c1)Cc1ccccc1-2` [2-aminofluorene], in data set [1], the “pKa* pseudo” value was 13.0.
Turning to `Nc1ccc2ccccc2c1` [2-naphthylamine], in data set [1], the “pKa* pseudo” value is recorded as 11.75 and the pKa was 14.95. The ΔpKa pseudo in data set [2] was −3.2.
As for `c1ccc(-c2cc(-c3ccccc3)[nH]n2)cc1` [3,5-diphenylpyrazole], in data set [1], the “pKa* pseudo” value is on record as 12.64 and the pKa was 12.94. Moreover, the ΔpKa pseudo in data set [2] is −0.3.
For the compound `Nc1cccc(-c2ccccc2)c1` [3-aminobiphenyl], in data set [1], the “pKa* pseudo” value is listed as 12.0 and the pKa is recorded as more than 15.0. The compound also displayed a ΔpKa pseudo in data set [2] of less than −3.0.
With `Nc1cnc2ccccc2c1` [3-aminoquinoline], the “pKa* pseudo” value in data set [1] is given as 12.1.
Take `COc1n[nH]c2ccccc12` [3-methoxyindazole]: in data set [1], the “pKa* pseudo” value is given as 11.7 and the pKa is reported as 14.0. Further, the ΔpKa pseudo in data set [2] was −2.3.
In the case of `Nc1ccc(Nc2ccc(N)cc2)cc1` [4,4′-diaminodiphenylamine], in data set [1], the “pKa* pseudo” value is listed as 13.5 and the pKa is more than 14.2. This compound displayed a ΔpKa pseudo in data set [2] of less than −0.7.
Regarding `Nc1ccc(-c2ccccc2)cc1` [4-aminobiphenyl], in data set [1], the “pKa* pseudo” value is recorded as 14.25 and the pKa is on record as more than 15.5. In data set [2], this compound came in with a ΔpKa pseudo of less than −1.25.
In the case of `Nc1ccc(Nc2ccccc2)cc1` [4-aminodiphenylamine], in data set [1], the “pKa* pseudo” value is on record as 11.2 and the pKa is recorded as more than 16.0. Besides, the ΔpKa pseudo in data set [2] is listed as less than −4.8.
With `Nc1ccc2[nH]ccc2c1` [5-aminoindole], in data set [1], the “pKa* pseudo” value is given as 14 and the pKa is reported as 16.1. In addition, the ΔpKa pseudo in data set [2] is −2.1.
With `Nc1cc2c3ccccc3ccc2c2ccccc12` [6-aminochrysene], in data set [1], the “pKa* pseudo” value is listed as 12.6 and the pKa is given as more than 14. This compound yielded a ΔpKa pseudo in data set [2] of less than −1.4.
Take `Nc1ccc(C(=O)O)cn1` [6-aminonicotinic acid]: the “pKa* pseudo” value in data set [1] is given as 14.2.
Regarding `Nc1cc2ccccc2c2ccccc12` [9-phenanthrylamine], in data set [1], the “pKa* pseudo” value was 12.18 and the pKa was more than 14. In data set [2], the ΔpKa pseudo is listed as less than −1.82.
For the compound `Nc1ccc(Oc2ccc(N)cc2)cc1` [bis(4-aminophenyl)ether], the “pKa* pseudo” value in data set [1] is 11.2.
On to `c1ccc2c(c1)[nH]c1ccccc12` [carbazole], for which the “pKa* pseudo” value in data set [1] was 11.9. The ΔpKa pseudo in data set [2] was −9.2.
As for `O=C(O)c1cc2ccccc2[nH]1` [indole-2-carboxylic acid], in data set [1], the “pKa* pseudo” value is listed as 12.9 and the pKa is on record as 17.1. The same compound returned a ΔpKa pseudo in data set [2] of −4.2.
For `O=C(O)c1c[nH]c2ccccc12` [indole-3-carboxylic acid], in data set [1], the “pKa* pseudo” value is recorded as 13.1 and the pKa is listed as 15.6. Also, in data set [2], the ΔpKa pseudo was −2.5.
In the case of `O=C(O)c1cccc2[nH]ccc12` [indole-4-carboxylic acid], in data set [1], the “pKa* pseudo” value is 12.2 and the pKa is given as 16.4. This compound gave a ΔpKa pseudo in data set [2] of −4.2.
Take `O=C(O)c1ccc2[nH]ccc2c1` [indole-5-carboxylic acid]: in data set [1], the “pKa* pseudo” value is 12.3 and the pKa is reported as 16.9. The compound also came in with a ΔpKa pseudo in data set [2] of −4.6.
As to `COc1cccc(N)c1` [m-anisidine], in data set [1], the “pKa* pseudo” value was 13.7 and the pKa is more than 16.
For `COC(=O)c1ccc(N)nc1` [methyl-6-aminonicotinate], the “pKa* pseudo” value in data set [1] is given as 11.1.
Turning to `COc1ccc(N)cc1` [p-anisidine], in data set [1], the “pKa* pseudo” value was 13.3 and the pKa is listed as more than 16. In addition, the ΔpKa pseudo in data set [2] is less than −2.7.
